Data from article PMC7887271, “Fast acting allosteric phosphofructokinase inhibitors block trypanosome glycolysis and cure acute African trypanosomiasis in mice” (Nature Communications, 2021).
“And” between values parts separate entries of the source, which are not always exact repeats. Equal entries are not always repeated. Where two headings read alike, the source gives them in different places.

Legend:
HepG2 cells = experiment: HepG2 cytotoxicity assay; type: cell-based, human
Protocol: (§1) A HepG2 cytotoxicity assay was used to determine a cellular selectivity index. HepG2 cells were seeded into 96-well plates in EMEM medium. Compounds were assessed for their effect upon cellular viability (Supplementary Methods 5.1). Inhibition of CYP450 was determined using kits from BD Biosciences (Supplementary Methods 5.2). Metabolic stability was determined using mouse […] tested at a single concentration of 5 µM. Plasma protein binding was determined using mouse and human plasma at a single concentration of 10 µM (Supplementary Methods 5.4). All PK studies in mice were carried out by Pharmidex (Supplementary Methods 6.1).
To determine a cellular selectivity index, a HepG2 Cytotoxicity Assay was used. HepG2 cells (a human hepatocyte carcinoma cell line) were seeded into 96 well plates in EMEM media. Compounds were assessed for their effect upon cellular viability (6 point dose response curves). After 72h the numbers of viable cells were detected using Promega CellTitreGlo reagent to measure ATP using the luciferase/luciferin detection system. The selectivity index is calculated as the EC50 in the HepG2 assay divided by the EC50 determined in the T. b. brucei parasite killing assay.

[1] = Pharmacokinetic studies in mice (IV and PO); type: in vivo, female CD-1 mice; settings: for AUC(0-inf): read-out: AUC (infinity)
Protocol: PK parameters for the lead compounds were determined using three mice per data point (Supplementary Methods 6.1).
Blood samples were collected from terminal cardiac puncture at 0.08 (IV only), 0.25, 0.5, 1 (PO only), 2, 4, 8 and 24 hour time points. The whole blood was centrifuged to obtain plasma. Brains were also collected following cardiac perfusion from both sets of animals at 2 hours. Analysis of the biological samples was carried out by the company Selcia. Plasma proteins were precipitated by addition of PBS (1 volume) followed by 3 volumes of acetonitrile containing internal standard (verapamil). Following filtration through a protein precipitation plate the eluent was dried under nitrogen and re-suspended in mobile phase prior to analysis. Individual brains were homogenised in PBS and diluted to 10% w/v and divided into aliquots consisting of brain homogenate (1 volume, 0.3 ml) and 3 volumes (0.9 ml) of acetonitrile containing internal standard. Samples were centrifuged and supernatants removed and taken through a protein precipitation plate alongside an appropriate standard. Eluents were dried under nitrogen and re-suspended in mobile phase prior to analysis. Eluents were analysed by LC-MS/MS using a Phenomenex Gemini NX column (C18,30 x 2.1 mm, 3 micron). Analysis of the data was carried out using PK solutions software.

[2] = Plasma protein binding, human plasma; type: in vitro ADME; settings: equilibrium dialysis, read-out: Human plasma protein binding fu(%)
Protocol: as §1
Compounds were tested for protein binding using mouse and human plasma at a single concentration of 10 µM and measured by equilibrium dialysis between plasma and buffer. The amount of parent was determined on both sides of the membrane after incubating for 4 hours at 37 °C. The samples were crashed with acetonitrile and put through protein precipitation plates. The eluent was analysed by LC/MS or LC/MS/MS. Output was percentage bound.

[3] = Tolerance studies and plasma levels after multiple oral dosing; type: in vivo; settings: for Experimental plasma concentration measured @2hr after final dose: 2 h intervals
Protocol: All efficacy studies were carried out using CD-1 mice in accordance with the United Kingdom Animals (Scientific Procedures) Act (1986) under Home Office regulations. Studies were performed in SPF facilities at the University of Edinburgh under licence PPL 70/8102 and at the University of Glasgow under PPL 60/4442. The experiments were approved by the local ethics committees of the respective universities. Dosing regimens used in efficacy studies were first tested for tolerance in female CD-1 mice (University of Edinburgh; 6–8 weeks old). Animals were dosed orally by gavage with CTCB compounds following the dosing regimen for each individual experiment (n = 5; Supplementary Methods 6.2).
Dosing regimens used in efficacy studies were first tested for tolerance in female CD-1 mice (University of Edinburgh; 6-8 weeks old). Animals were dosed orally by gavage with CTCB compounds following the dosing regimen for each individual experiment (n=5) as indicated. Compounds were administered in a mixture containing Cremophor EL: EtOH: D-PBS (30:10:60 v/v). Animals were monitored for up to 8 hours post-dosing. On the final day of dosing, 2 hours after the final dose, whole blood was harvested from three mice via cardiac puncture, under gaseous isoflurane anaesthesia, to obtain plasma for analyses. The remaining two mice were monitored for several days post dosing. To avoid coagulation, 100 μl of 2% sodium citrate was utilised in the syringe during the procedure and blood samples subsequently transferred to heparin coated microtubules. Blood samples were centrifuged at 800 x g for 10 minutes at room temperature. The supernatant containing the plasma was transferred to a fresh tube for determination of compound levels and further PK analysis.

[4] = female, CD-1, plasma, mouse, PO 5 mg kg^−1

## CN(C)CCn1ccc2c(ccn2Cc2ccc(Cl)c(Cl)c2)c1=O [CTCB-405, 1-[(3,4-Dichlorophenyl)methyl]-5-[2-(dimethylamino)ethyl] pyrrolo[3,2-c]pyridin-4-one]
HepG2 cells; EC50 HepG2 divided by EC50 T. b. brucei parasite killing
  Selectivity: 56
HepG2 cells; Homo sapiens, HepG2, 72 h, CellTitreGlo
  EC50: 20.8 µM
[1]; 1 mg/kg IV bolus, mouse (female, CD-1), 0.08 h
  Plasma concentration, individual animal: 0.415 µM and 0.386 µM and 140.6 ng/ml and 135.9 ng/ml
[1]; 1 mg/kg IV bolus, mouse (female, CD-1), 0.25 h
  Plasma concentration, individual animal: 0.37 µM and 0.489 µM and 178.1 ng/ml and 108.2 ng/ml
[1]; 1 mg/kg IV bolus, mouse (female, CD-1), 0.5 h
  Plasma concentration, individual animal: 0.118 µM and 0.159 µM and 57.9 ng/ml and 49.5 ng/ml
[1]; 1 mg/kg IV bolus, mouse (female, CD-1), 2 h
  Plasma concentration, individual animal: 0.049 µM and 0.069 µM and 0.109 µM and 25.1 ng/ml and 39.7 ng/ml and 17.8 ng/ml
[1]; 1 mg/kg IV bolus, mouse (female, CD-1), 4 h
  Plasma concentration, individual animal: 0.042 µM and 0.015 µM and 0.019 µM and 5.5 ng/ml and 6.9 ng/ml and 15.3 ng/ml
[1]; 1 mg/kg IV bolus, mouse (female, CD-1), 8 h
  Plasma concentration, individual animal: 0.011 µM and 4.0 ng/ml
[1]; 5 mg/kg oral dose (PO), mouse (female, CD-1), 0.25 h
  Plasma concentration, individual animal: 279.4 ng/ml and 164.7 ng/ml and 0.767 µM and 0.452 µM
[1]; 5 mg/kg oral dose (PO), mouse (female, CD-1), 0.5 h
  Plasma concentration, individual animal: 77.6 ng/ml and 126.4 ng/ml and 0.213 µM and 0.347 µM
[1]; 5 mg/kg oral dose (PO), mouse (female, CD-1), 1 h
  Plasma concentration, individual animal: 129.3 ng/ml and 229.9 ng/ml and 100.9 ng/ml and 0.355 µM and 0.631 µM and 0.277 µM
[1]; 5 mg/kg oral dose (PO), mouse (female, CD-1), 2 h
  Plasma concentration, individual animal: 177.4 ng/ml and 144.3 ng/ml and 303.4 ng/ml and 0.487 µM and 0.396 µM and 0.833 µM
[1]; 5 mg/kg oral dose (PO), mouse (female, CD-1), 4 h
  Plasma concentration, individual animal: 88.9 ng/ml and 83.8 ng/ml and 0.244 µM and 0.23 µM
[1]; 5 mg/kg oral dose (PO), mouse (female, CD-1), 8 h
  Plasma concentration, individual animal: 9.1 ng/ml and 0.025 µM
[1]; female, CD-1, mouse, plasma, intravenous, 1 mg/kg, 1 mg/kg IV bolus, mouse (female, CD-1), 0.08 h, read-out: Plasma concentration, Mean
  concentration at 0.08 h: 143 ng/mL and 391 nM
[1]; female, CD-1, mouse, plasma, intravenous, 1 mg/kg, 1 mg/kg IV bolus, mouse (female, CD-1), 0.08 h, read-out: Plasma concentration, individual animal
  concentration at 0.08 h: 373 nM and 151 ng/mL
[1]; female, CD-1, mouse, plasma, intravenous, 1 mg/kg, 1 mg/kg IV bolus, mouse (female, CD-1), 0.25 h, read-out: Plasma concentration, Mean
  concentration at 0.25 h: 140 ng/mL and 385 nM
[1]; female, CD-1, mouse, plasma, intravenous, 1 mg/kg, 1 mg/kg IV bolus, mouse (female, CD-1), 0.25 h, read-out: Plasma concentration, individual animal
  concentration at 0.25 h: 297 nM and 135 ng/mL
[1]; female, CD-1, mouse, plasma, intravenous, 1 mg/kg, 1 mg/kg IV bolus, mouse (female, CD-1), 0.5 h, read-out: Plasma concentration, Mean
  concentration at 0.5 h: 50.1 ng/mL and 138 nM
[1]; female, CD-1, mouse, plasma, intravenous, 1 mg/kg, 1 mg/kg IV bolus, mouse (female, CD-1), 0.5 h, read-out: Plasma concentration, individual animal
  concentration at 0.5 h: 136 nM and 43 ng/mL
[1]; female, CD-1, mouse, plasma, intravenous, 1 mg/kg, 1 mg/kg IV bolus, mouse (female, CD-1), 2 h
  concentration at 2 h: 27.6 ng/mL and 75.7 nM
[1]; female, CD-1, mouse, plasma, intravenous, 1 mg/kg, 1 mg/kg IV bolus, mouse (female, CD-1), 4 h, read-out: Plasma concentration, Mean
  concentration at 4 h: 9.23 ng/mL and 25.3 nM
[1]; female, CD-1, mouse, plasma, intravenous, 1 mg/kg, 1 mg/kg IV bolus, mouse (female, CD-1), 8 h, read-out: Plasma concentration, Mean
  concentration at 8 h: 3.28 ng/mL and 9 nM
[1]; female, CD-1, mouse, plasma, intravenous, 1 mg/kg, 1 mg/kg IV bolus, mouse (female, CD-1), 8 h, read-out: Plasma concentration, individual animal
  concentration at 8 h: 7 nM and 2.5 ng/mL
[1]; female, CD-1, mouse, plasma, oral, 5 mg/kg, 5 mg/kg oral dose (PO), mouse (female, CD-1), 0.25 h, read-out: Plasma concentration, Mean
  concentration at 0.25 h: 200 ng/mL and 548 nM
[1]; female, CD-1, mouse, plasma, oral, 5 mg/kg, 5 mg/kg oral dose (PO), mouse (female, CD-1), 0.25 h, read-out: Plasma concentration, individual animal
  concentration at 0.25 h: 155 ng/mL and 426 nM
[1]; female, CD-1, mouse, plasma, oral, 5 mg/kg, 5 mg/kg oral dose (PO), mouse (female, CD-1), 0.5 h, read-out: Plasma concentration, Mean
  concentration at 0.5 h: 103 ng/mL and 283 nM
[1]; female, CD-1, mouse, plasma, oral, 5 mg/kg, 5 mg/kg oral dose (PO), mouse (female, CD-1), 0.5 h, read-out: Plasma concentration, individual animal
  concentration at 0.5 h: 105 ng/mL and 288 nM
[1]; female, CD-1, mouse, plasma, oral, 5 mg/kg, 5 mg/kg oral dose (PO), mouse (female, CD-1), 1 h
  concentration at 1 h: 153 ng/mL and 421 nM
[1]; female, CD-1, mouse, plasma, oral, 5 mg/kg, 5 mg/kg oral dose (PO), mouse (female, CD-1), 2 h
  concentration at 2 h: 208 ng/mL and 572 nM
[1]; female, CD-1, mouse, plasma, oral, 5 mg/kg, 5 mg/kg oral dose (PO), mouse (female, CD-1), 4 h, read-out: Plasma concentration, Mean
  concentration at 4 h: 89 ng/mL and 244 nM
[1]; female, CD-1, mouse, plasma, oral, 5 mg/kg, 5 mg/kg oral dose (PO), mouse (female, CD-1), 4 h, read-out: Plasma concentration, individual animal
  concentration at 4 h: 94.3 ng/mL and 259 nM
[1]; female, CD-1, mouse, plasma, oral, 5 mg/kg, 5 mg/kg oral dose (PO), mouse (female, CD-1), 8 h, read-out: Plasma concentration, Mean
  concentration at 8 h: 8.2 ng/mL and 22.5 nM
[1]; female, CD-1, mouse, plasma, oral, 5 mg/kg, 5 mg/kg oral dose (PO), mouse (female, CD-1), 8 h, read-out: Plasma concentration, individual animal
  concentration at 8 h: 7.3 ng/mL and 20 nM
[1]; female, CD-1, plasma, mouse, IV 1 mg kg^−1
  AUC(0-inf): 260 ng·h/mL
[1]; female, CD-1, plasma, mouse, IV 1 mg kg^−1, read-out: CL/kg (converted)
  clearance: 63.3 mL/min/kg
[1]; female, CD-1, plasma, mouse, IV 1 mg kg^−1, read-out: Elimination t1/2 (converted)
  half-life: 2.7 h
[1]; female, CD-1, plasma, mouse, IV 1 mg kg^−1, read-out: Vd (area)
  Vd: 12.3 L/kg
[1]; [4]
  Cmax: 206 ng/mL
  Tmax: 0.3 h
  AUC(0-inf): 704 ng·h/mL
[1]; female, CD-1, plasma, mouse, PO 5 mg kg^−1 vs IV 1 mg kg^−1, read-out: Bioavailability (F%)
  bioavailability: 54%
[2]
  fraction unbound at 4 h, 10 µM: 0.063
[3]; 3 x 50 mg/kg oral
  Experimental plasma concentration measured @2hr after final dose: 6.8 ± 2.1 µM
[3]; 3 x 100 mg/kg oral
  Experimental plasma concentration measured @2hr after final dose: 9.8 ± 3.1 µM
[3]; mice, oral
  tolerance of high doses: well tolerated
[3]; three doses at 100 mg kg^−1 given on two consecutive days
  plasma levels: 9.8 µM
[3]; up to 300 mg kg^−1 per day
  autopsied livers: appeared normal
[3]; up to 300 mg kg^−1 per day, cumulative dosing tolerance studies
  apparent toxicity: no apparent toxicity
